Data set [1] can be described thus: Pharmacokinetics in rats after intravenous administration. Format: in vivo. To be noted: from the cited clearance values.
In data set [2] the target is T1, OCT1 (Homo sapiens, UniProt O15245).
T1 sequence (O15245 1-554): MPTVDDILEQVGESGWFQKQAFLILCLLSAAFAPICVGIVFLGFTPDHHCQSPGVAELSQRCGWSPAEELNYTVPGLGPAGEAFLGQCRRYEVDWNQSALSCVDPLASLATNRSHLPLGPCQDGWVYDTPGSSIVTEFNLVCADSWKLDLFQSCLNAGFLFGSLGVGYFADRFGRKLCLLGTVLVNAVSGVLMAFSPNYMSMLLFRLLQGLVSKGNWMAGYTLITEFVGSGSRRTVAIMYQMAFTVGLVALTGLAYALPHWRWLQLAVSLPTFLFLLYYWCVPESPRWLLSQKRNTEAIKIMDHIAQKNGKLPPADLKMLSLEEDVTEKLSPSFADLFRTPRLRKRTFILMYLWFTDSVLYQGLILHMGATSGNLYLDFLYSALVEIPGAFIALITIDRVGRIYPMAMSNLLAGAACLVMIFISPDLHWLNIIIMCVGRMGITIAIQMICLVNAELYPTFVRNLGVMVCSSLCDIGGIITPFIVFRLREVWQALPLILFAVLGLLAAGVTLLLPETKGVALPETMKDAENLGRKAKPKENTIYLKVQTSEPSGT
Description: Uptake in HEK293 cells overexpressing OCT1. The class given is in vitro ADME. Conditions: OCT1, influx.

In another data set the target is T2, OAT3 (Homo sapiens, UniProt Q8TCC7).
T2 sequence (Q8TCC7 1-542): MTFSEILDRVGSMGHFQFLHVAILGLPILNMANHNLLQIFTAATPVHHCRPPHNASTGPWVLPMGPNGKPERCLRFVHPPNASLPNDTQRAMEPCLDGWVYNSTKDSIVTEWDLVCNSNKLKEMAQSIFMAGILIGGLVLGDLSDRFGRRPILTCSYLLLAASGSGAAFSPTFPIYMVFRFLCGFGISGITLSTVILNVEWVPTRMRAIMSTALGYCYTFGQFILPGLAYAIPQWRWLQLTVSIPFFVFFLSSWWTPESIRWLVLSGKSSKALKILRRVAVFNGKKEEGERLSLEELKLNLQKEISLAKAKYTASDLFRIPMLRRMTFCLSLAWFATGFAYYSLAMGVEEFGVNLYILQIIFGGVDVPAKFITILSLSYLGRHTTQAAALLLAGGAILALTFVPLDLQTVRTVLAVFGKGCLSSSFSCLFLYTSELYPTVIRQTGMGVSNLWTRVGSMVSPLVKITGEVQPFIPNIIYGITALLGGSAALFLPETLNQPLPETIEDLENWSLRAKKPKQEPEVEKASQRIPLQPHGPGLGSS
Description: Uptake in HEK293 cells overexpressing OAT3. The class given is in vitro ADME.

A further data set addresses T3, OAT1 (Homo sapiens, UniProt Q4U2R8).
T3 sequence (Q4U2R8 1-563): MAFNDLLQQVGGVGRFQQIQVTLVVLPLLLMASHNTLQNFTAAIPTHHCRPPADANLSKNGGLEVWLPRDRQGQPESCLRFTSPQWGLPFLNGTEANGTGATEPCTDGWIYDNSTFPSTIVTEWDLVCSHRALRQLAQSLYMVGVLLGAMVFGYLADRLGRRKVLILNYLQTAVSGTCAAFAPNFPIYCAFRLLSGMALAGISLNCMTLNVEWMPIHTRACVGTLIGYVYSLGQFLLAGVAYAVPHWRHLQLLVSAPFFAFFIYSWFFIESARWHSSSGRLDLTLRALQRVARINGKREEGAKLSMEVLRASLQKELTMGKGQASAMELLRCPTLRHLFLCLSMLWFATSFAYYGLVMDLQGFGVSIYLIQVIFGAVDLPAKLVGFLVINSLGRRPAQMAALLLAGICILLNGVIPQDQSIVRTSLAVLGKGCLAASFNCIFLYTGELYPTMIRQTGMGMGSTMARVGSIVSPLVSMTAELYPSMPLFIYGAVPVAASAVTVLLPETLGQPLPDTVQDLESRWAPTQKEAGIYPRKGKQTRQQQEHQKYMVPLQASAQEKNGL
The data set is described as follows: Uptake in HEK293 cells overexpressing OAT1. The class given is in vitro ADME. Conditions: OAT1, influx.

Data set [3] has as its target T1, OCT1. The data set is described as follows: Inhibitory effect of catalposide on OCT1 transport activity. The class given is in vitro ADME. To be noted: probe 0.1 μM [3H]MPP+, catalposide 0–100 μM.
The target of data set [4] is T4, P-gp (Homo sapiens, UniProt P08183). Description: Inhibitory effect of catalposide on P-gp transport activity. Format: in vitro ADME. Conditions: probe 0.1 μM [3H]digoxin, catalposide 1–100 μM.
In data set [5] the test system is suppression of cytokines, antioxidative effect, and PPAR-α activation. To be noted: in vitro cell system; cited from earlier work.
For another data set, the target named is T5, OATP1B3 (Homo sapiens, UniProt Q9NPD5).
T5 sequence (Q9NPD5 1-702): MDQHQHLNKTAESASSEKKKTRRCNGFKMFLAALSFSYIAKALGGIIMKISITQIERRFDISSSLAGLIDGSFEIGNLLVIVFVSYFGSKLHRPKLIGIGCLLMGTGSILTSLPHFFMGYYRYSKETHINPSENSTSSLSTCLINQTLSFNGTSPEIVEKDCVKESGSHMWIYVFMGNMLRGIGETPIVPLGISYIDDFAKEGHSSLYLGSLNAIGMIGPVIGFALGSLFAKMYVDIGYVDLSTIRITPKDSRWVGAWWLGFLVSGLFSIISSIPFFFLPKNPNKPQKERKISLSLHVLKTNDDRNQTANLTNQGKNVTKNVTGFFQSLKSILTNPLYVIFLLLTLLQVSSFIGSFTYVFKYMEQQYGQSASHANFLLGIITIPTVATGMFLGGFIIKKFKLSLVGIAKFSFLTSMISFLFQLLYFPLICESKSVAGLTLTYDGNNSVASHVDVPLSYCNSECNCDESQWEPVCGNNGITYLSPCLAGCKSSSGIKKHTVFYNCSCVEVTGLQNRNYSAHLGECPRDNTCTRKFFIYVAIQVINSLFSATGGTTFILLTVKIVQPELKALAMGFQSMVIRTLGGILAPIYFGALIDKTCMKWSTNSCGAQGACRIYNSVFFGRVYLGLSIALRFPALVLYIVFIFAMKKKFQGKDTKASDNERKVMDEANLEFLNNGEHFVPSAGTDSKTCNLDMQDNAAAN
Description: Uptake in HEK293 cells overexpressing OATP1B3. To be noted: OATP1B3-mediated uptake. Format: in vitro ADME.

The target of data set [6] is T4, P-gp. The data set is described as follows: A-to-B and B-to-A transport in LLC-PK1 cells overexpressing P-gp. The class given is in vitro ADME. Conditions: P-gp (MDR1), efflux.

The values below come from article PMC4310350 (Drug Design, Development and Therapy, 2015).

Entries after “also recorded” stand apart in the source; their conditions may differ.

T4 sequence (P08183 whole entry): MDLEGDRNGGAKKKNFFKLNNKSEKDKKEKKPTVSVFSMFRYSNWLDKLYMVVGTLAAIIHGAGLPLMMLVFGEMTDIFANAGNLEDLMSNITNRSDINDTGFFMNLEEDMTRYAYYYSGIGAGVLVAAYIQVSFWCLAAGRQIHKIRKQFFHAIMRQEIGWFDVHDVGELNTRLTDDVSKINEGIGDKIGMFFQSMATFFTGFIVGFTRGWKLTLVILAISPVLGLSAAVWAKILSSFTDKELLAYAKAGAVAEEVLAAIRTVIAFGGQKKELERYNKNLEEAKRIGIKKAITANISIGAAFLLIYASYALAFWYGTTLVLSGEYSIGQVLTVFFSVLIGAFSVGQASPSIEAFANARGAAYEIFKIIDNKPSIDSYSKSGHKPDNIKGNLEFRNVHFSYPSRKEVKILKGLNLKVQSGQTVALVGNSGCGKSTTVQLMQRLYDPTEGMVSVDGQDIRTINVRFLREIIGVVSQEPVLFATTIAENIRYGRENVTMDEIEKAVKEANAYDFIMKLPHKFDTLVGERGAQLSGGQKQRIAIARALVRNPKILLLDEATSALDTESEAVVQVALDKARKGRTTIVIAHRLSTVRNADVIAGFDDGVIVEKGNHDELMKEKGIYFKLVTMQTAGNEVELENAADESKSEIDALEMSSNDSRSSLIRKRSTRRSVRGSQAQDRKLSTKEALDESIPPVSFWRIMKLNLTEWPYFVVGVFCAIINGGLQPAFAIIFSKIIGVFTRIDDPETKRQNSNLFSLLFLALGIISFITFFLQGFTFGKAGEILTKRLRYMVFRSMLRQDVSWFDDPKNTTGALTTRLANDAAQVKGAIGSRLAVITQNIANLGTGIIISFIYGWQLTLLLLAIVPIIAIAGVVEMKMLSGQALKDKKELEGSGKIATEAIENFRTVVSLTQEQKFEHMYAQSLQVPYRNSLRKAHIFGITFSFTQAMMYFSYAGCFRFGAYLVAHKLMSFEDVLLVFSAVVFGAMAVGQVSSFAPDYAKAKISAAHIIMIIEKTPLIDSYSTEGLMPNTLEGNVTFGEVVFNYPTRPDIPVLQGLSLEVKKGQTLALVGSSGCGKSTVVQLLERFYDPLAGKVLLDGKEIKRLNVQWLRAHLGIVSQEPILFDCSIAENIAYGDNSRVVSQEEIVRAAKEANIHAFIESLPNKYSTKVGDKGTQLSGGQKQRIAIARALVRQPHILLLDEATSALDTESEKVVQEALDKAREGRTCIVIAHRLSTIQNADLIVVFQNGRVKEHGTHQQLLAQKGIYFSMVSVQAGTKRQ

For the compound `O=C(O[C@H]1[C@@H]2C=CO[C@@H](O[C@@H]3O[C@H](CO)[C@@H](O)[C@H](O)[C@H]3O)[C@@H]2[C@@]2(CO)O[C@@H]12)c1ccc(O)cc1` [catalposide], the “Share cleared by nonrenal clearance” value in data set [1] is “approximately 90%”. The results for the Substrate entry at OCT1 [2], at OAT1 and at P-gp [6] were “not involved”, “not involved” and “not involved; also recorded: not a substrate”, respectively. For the same compound, the “Clint for OAT3 relative to OATP1B1” value on OAT3 (OAT3 vs OATP1B1) is 31.8 fold. Further, the “Clint for OAT3 relative to OATP1B3” value on OAT3 (OAT3 vs OATP1B3) is listed as 32.7 fold. Moreover, the Inhibitor entry on OCT1 [3] and at P-gp [4] was “did not significantly inhibit” throughout. For the same compound, the Effective concentration in data set [5] was 0.2 to 4 µM. Further, the Hill coefficient n at OATP1B3 is roughly 1.
